ChEMBL document CHEMBL1137013, “Discovery of (2R)-2-(3-{3-[(4-Methoxyphenyl)carbonyl]-2-methyl-6-(trifluoromethoxy)-1H-indol-1-yl}phenoxy)butanoic acid (MK-0533): a novel selective peroxisome proliferator-activated receptor gamma modulator for the treatment of type 2 diabetes mellitus with a reduced potential to increase plasma …” (J Med Chem, 2009)
The source made the active and inactive calls. The calls are words filed in the database; no cut-off is given here.

Tests used:
[1] = target: T1, Peroxisome proliferator-activated receptor alpha (Canis lupus familiaris) (UniProt Q95N78); assay: Agonist activity at dog PPARalpha at 3000 nM; type: functional
T1 sequence (whole entry): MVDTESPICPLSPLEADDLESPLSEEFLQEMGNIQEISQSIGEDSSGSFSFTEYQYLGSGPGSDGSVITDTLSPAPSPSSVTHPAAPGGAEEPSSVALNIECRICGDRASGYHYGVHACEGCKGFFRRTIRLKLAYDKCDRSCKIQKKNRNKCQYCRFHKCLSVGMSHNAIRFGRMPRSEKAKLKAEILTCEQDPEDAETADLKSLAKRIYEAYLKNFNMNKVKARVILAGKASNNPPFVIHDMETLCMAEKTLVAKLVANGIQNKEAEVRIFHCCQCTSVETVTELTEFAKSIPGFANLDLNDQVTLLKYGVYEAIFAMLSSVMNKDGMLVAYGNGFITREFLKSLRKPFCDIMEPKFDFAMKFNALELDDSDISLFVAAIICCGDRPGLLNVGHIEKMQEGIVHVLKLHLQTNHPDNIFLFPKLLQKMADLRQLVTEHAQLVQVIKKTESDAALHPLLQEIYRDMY

[2] = test system: Mus musculus; assay: Antihyperglycemic activity in db/db mouse assessed as plasma adiponectin level at 30 mg/kg, po administered once daily for 11 days by RIA; type: functional
[3] = Volume of distribution at steady state in rat; type: ADME, organism-based; details: in vivo, read-out: Vdss
[4] = Volume of distribution at steady state in dog; type: ADME, organism-based, Canis lupus familiaris; details: in vivo, read-out: Vdss
[5] = test system: Rattus norvegicus; assay: Toxicity in Sprague-Dawley rat assessed as heart weight at 300 mg/kg dosed daily for 2 weeks; type: organism-based; set-up: dose 300 mg/kg; details: in vivo, 336 h
[6] = Plasma clearance in dog; type: ADME, organism-based, Canis lupus familiaris
[7] = test system: Cricetinae; assay: Agonist activity at hamster PPARalpha at 3000 nM; type: functional
[8] = test system: Rattus norvegicus; assay: Antidiabetic activity in obese insulin-resistant Zucker fa/fa rat assessed as decrease in plasma triglyceride level at 3 to 150 mg/kg, po once daily for 7 days; type: functional, organism-based
[9] = target: T2, Peroxisome proliferator-activated receptor alpha (Mus musculus) (UniProt P23204); assay: Agonist activity at mouse PPARalpha at 3000 nM; type: functional
T2 sequence (whole entry): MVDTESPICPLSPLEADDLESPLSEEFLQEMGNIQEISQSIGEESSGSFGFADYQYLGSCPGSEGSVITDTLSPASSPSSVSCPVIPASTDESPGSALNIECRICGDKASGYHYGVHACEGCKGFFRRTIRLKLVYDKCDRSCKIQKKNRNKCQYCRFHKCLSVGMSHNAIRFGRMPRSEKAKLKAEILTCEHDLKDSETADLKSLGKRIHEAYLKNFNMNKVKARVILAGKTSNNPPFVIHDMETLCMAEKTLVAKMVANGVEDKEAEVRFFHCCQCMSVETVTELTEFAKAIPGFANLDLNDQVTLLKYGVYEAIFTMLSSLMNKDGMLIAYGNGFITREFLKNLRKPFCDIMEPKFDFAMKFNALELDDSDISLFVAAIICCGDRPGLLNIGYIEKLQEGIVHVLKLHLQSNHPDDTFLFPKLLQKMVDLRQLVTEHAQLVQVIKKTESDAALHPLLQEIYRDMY

[10] = Oral bioavailability in rat; type: ADME, organism-based; details: in vivo
[11] = target: T3, Peroxisome proliferator-activated receptor alpha (Canis lupus familiaris, UniProt Q95N78); assay: Agonist activity at dog PPARalpha; type: functional; details: read-out: EC50
T3 sequence (Q95N78 whole entry): T1 sequence (whole entry)

[12] = AUC in obese insulin-resistant Zucker fa/fa rat at 3 mg/kg, po once daily for 7 days; type: ADME, organism-based; set-up: dose 3 mg/kg, route oral; details: plasma
[13] = target: T4, Peroxisome proliferator-activated receptor gamma (Homo sapiens, UniProt P37231)
T4 sequence (P37231 whole entry): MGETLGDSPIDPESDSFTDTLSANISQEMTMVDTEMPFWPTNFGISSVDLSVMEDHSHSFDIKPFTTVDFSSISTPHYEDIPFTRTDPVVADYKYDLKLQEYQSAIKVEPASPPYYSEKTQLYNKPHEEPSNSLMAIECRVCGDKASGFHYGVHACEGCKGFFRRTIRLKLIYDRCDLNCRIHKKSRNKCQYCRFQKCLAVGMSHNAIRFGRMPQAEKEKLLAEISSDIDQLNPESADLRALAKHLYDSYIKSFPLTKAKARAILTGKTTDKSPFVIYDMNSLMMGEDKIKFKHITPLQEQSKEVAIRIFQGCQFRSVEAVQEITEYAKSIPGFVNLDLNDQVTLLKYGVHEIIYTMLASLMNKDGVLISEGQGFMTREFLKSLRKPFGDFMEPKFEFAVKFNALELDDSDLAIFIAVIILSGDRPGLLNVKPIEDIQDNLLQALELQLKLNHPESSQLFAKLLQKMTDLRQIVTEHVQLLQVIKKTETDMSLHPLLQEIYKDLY
Description: Displacement of [3H2]nTZD3 from human recombinant GST-fused PPARgamma expressed in Escherichia coli by scintillation proximity assay

[14] = Terminal half life in rat; type: ADME, organism-based; details: in vivo, read-out: beta t1/2 (converted)
[15] = Volume of distribution at steady state in monkey; type: ADME, organism-based, Macaca mulatta; details: rhesus monkey, in vivo; read-out: Vdss
[16] = test system: Rattus norvegicus; assay: Antidiabetic activity in obese insulin-resistant Zucker fa/fa rat assessed as decrease in plasma free fatty acid level at 3 to 150 mg/kg, po once daily for 7 days; type: functional, organism-based
[17] = test system: Rattus norvegicus; assay: Toxicity in obese insulin-resistant Zucker fa/fa rat assessed as increase in plasma volume at 100 mg/kg, po once daily for 7 days by Evans blue dye dilution technique; details: in vivo, 168 h
[18] = AUC in obese insulin-resistant Zucker fa/fa rat at 100 mg/kg, po once daily for 7 days; type: ADME, organism-based; set-up: dose 100 mg/kg, route oral; details: plasma
[19] = test system: Rattus norvegicus; assay: Toxicity in obese insulin-resistant Zucker fa/fa rat assessed as increase in plasma volume at 30 mg/kg, po once daily for 7 days by Evans blue dye dilution technique; type: organism-based; set-up: dose 30 mg/kg, route oral; details: in vivo, 168 h
[20] = test system: Rattus norvegicus; assay: Toxicity in obese insulin-resistant Zucker fa/fa rat assessed as increase in heart weight volume at 3 to 150 mg/kg, po once daily for 7 days; type: organism-based; set-up: dose 3-150 mg/kg, route oral; details: in vivo, 168 h
[21] = test system: Rattus norvegicus; assay: Toxicity in Sprague-Dawley rat assessed as liver weight at 300 mg/kg dosed daily for 2 weeks; type: organism-based; set-up: dose 300 mg/kg; details: in vivo, 336 h
[22] = test system: Rattus norvegicus; assay: Toxicity in obese insulin-resistant Zucker fa/fa rat assessed as increase in extracellular fluid volume at 3 to 150 mg/kg, po once daily for 7 days measured after 24 hrs by bioelectrical impedance analysis; type: organism-based; set-up: dose 3-150 mg/kg, route oral; details: in vivo
[23] = Terminal half life in monkey; type: ADME, organism-based, Macaca mulatta; details: rhesus monkey, in vivo; read-out: beta t1/2 (converted)
[24] = test system: Liver; assay: Protein binding in rat liver assessed per mg of protein; type: ADME, tissue-based
[25] = target: T4, Peroxisome proliferator-activated receptor gamma; remark: listed apart in the source
Description: Agonist activity at human recombinant PPARgamma expressed in COS1 cells co-expressing GAL4 assessed as transcriptional activity after 48 hrs by luciferase reporter gene assay

[26] = AUC in Sprague-Dawley rat at 300 mg/kg dosed daily for 2 weeks; type: ADME, organism-based; set-up: dose 300 mg/kg; details: plasma

Structure (SMILES): CC[C@@H](Oc1cccc(-n2c(C)c(C(=O)c3ccc(OC)cc3)c3ccc(OC(F)(F)F)cc32)c1)C(=O)O [MK-0533]
- Activity [1]: 35%
- Activity [2]: 48.1 µg/mL
- Vd [3]: 1.4 L/kg
- Vd [4]: 1.4 L/kg
- Activity [5]: 1.1 g
- clearance [6]: 7.5 mL/min/kg
- Activity [7]: 52%
- Activity [8]: Active
- Activity [9]: 53%
- bioavailability [10]: 81%
- EC50 [11]: 370 nM
- AUC at 168 h [12]: 6 µM·h
- IC50 [13]: 9 nM
- half-life [14]: 1.6 h
- Vd [15]: 0.7 L/kg
- Activity [16]: Active
- Activity [17]: Toxic
- AUC at 168 h [18]: 1480 µM·h
- Activity [19]: Non-toxic
- Activity [20]: Non-toxic
- Activity [21]: 19.7 g
- Activity [22]: Non-toxic
- half-life [23]: 3.2 h
- PB [24]: < 10 pmol
- EC50 [25]: 2 nM
- AUC at 336 h [26]: 954 µM·h
